From patent publication US12636285B2 (ViiV Healthcare Company, priority 2019, dated 2026)
Where two headings read alike, the source gives them in different places.

Legend:
[1] = Pharmacokinetics in specific populations (renal, hepatic impairment, UGT1A1 genotype); assay type: in vivo, human; settings: for pharmacokinetic differences vs matching healthy subjects: oral cabotegravir
Text: No dosage adjustment is necessary for patients with mild to severe renal impairment (not on dialysis).
No dosage adjustment is necessary for patients with mild to moderate hepatic impairment (Child-Pugh Score A or B).
No dose adjustment is required in subjects with UGT1A1 polymorphisms.

HIV-1 clinical isolates = test: Antiviral activity in PBMCs against clinical isolates; assay type: cell-based; settings: Human immunodeficiency virus 1, PBMC
[2] = QT cross-over trial of oral cabotegravir in healthy subjects; assay type: in vivo, human; settings: oral cabotegravir 150 mg every 12 hours
clinical HIV-2 isolates = test: Antiviral activity against clinical HIV-2 isolates; assay type: cell-based; settings: Human immunodeficiency virus 2, n=4
CYP1A2, CYP2B6, CYP3A4 = test: In vitro CYP induction; assay type: in vitro ADME

SMILES: C[C@H]1CO[C@@H]2Cn3cc(C(=O)NCc4ccc(F)cc4F)c(=O)c(O)c3C(=O)N12 [Cabotegravir, (3S,11aR)-N-[(2,4-difluorophenyl)methyl]-6-hydroxy-3-methyl-5,7-dioxo-2,3,5,7,11,11a-hexahydro[1,3]oxazolo[3,2-a]pyrido[1,2-d]pyrazine-8-carboxamide]
- increase in mean steady-state AUC, Cmax, and Ctau vs normal UGT1A1 metabolism ([1]; UGT1A1 genotypes conferring poor metabolism, long-acting injection): 1.2 fold
- pharmacokinetic differences vs matching healthy subjects ([1]; moderate hepatic impairment): No clinically important pharmacokinetic differences
- pharmacokinetic differences vs matching healthy subjects ([1]; severe renal impairment (CrCL<30 mL/min, not on dialysis)): No clinically important pharmacokinetic differences
- EC50 (HIV-1 clinical isolates; read-out: EC50 range, panel of 24 HIV-1 clinical isolates, PBMCs): 0.02 to 1.06 nM
- EC50 (HIV-1 clinical isolates; read-out: EC50 range, subtype B clinical isolates, n=3): 0.02 to 0.5 nM
- EC50 (HIV-1 clinical isolates; read-out: median EC50, panel of 24 HIV-1 clinical isolates (group M subtypes A-G, group O), PBMCs): 0.19 nM
- EC50 (HIV-1 clinical isolates; read-out: median EC50, subtype B clinical isolates, n=3): 0.05 nM
- QTc interval over 24 hours post dose [2]: did not prolong the QTc interval
- maximum time-matched mean QTc change (QTcF), baseline and placebo adjusted ([2]; 3 doses): 2.62 ms
- EC50 (clinical HIV-2 isolates; read-out: EC50 range): 0.1 to 0.14 nM
- EC50 (clinical HIV-2 isolates; read-out: median EC50): 0.12 nM
- induction of CYP1A2, CYP2B6, or CYP3A4 (CYP1A2, CYP2B6, CYP3A4): did not induce
